According to PubChem BioAssay (NCI):
Where “and” joins values, the source holds several entries; their conditions need not be identical. Identical values can stand only once.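 Briefly, cells in 96-well plates were exposed to five compound concentrations for 48 h, and endpoints were estimated by linear interpolation. GI50 marks 50% less growth. TGI: total growth inhibition.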

Experiments:
Experiment in all cases: NCI anticancer screen, dose series, 48 h
DLD-1 colon = tested on: DLD-1 colon
DMS 114 small cell lung = tested on: DMS 114 small cell lung
HOP-18 NSCLC = tested on: HOP-18 NSCLC
LXFL 529 NSCLC = tested on: LXFL 529 NSCLC
RXF-631 renal = tested on: RXF-631 renal
XF 498 CNS = tested on: XF 498 CNS

| Structure (SMILES) | TGI (DLD-1 colon) | TGI (DMS 114 small cell lung) | TGI (HOP-18 NSCLC) [µM] | TGI (LXFL 529 NSCLC) [µM] | TGI (RXF-631 renal) [µM] | TGI (XF 498 CNS) [µM] | GI50 (DLD-1 colon) [µM] | GI50 (DMS 114 small cell lung) [µM] | GI50 (LXFL 529 NSCLC) [µM] | GI50 (RXF-631 renal) [µM] |
| --- | --- | --- | --- | --- | --- | --- | --- | --- | --- | --- |
| Cc1ccccc1C1=C(C(=O)Nc2ccc(Cl)c(Cl)c2)NC(=S)NC1N (stereo not drawn) | > 100 µM | > 100 µM | > 100 | > 100 | > 100 | > 100 |  |  |  |  |
| C[C@]12CCCC(=O)C1(O)C[C@H](C(=O)O)CC2 (stereo partly drawn) | > 100 µM | > 100 µM | > 100 | > 100 | > 100 | > 100 |  |  |  |  |
| COC(=O)c1ccccc1NC(=O)C(=O)NNC(=O)c1ccncc1 | > 100 µM | > 100 µM | > 100 | > 100 | > 100 | > 100 |  |  |  |  |
| CC[C@]1(O)C(=O)OCc2c1cc1n(c2=O)Cc2cc3c(N)cccc3nc2-1 | > 100 µM | > 100 µM | > 100 | > 100 | > 100 | > 100 |  |  |  |  |
| N#CCCN(CCC#N)c1ccc(C(Sc2ccccc2)C(NC(=O)c2cc([N+](=O)[O-])ccc2Cl)C(=O)Sc2ccccc2)cc1 (stereo not drawn) | 9.43 µM and 4.58 µM | 7.78 µM and 4.1 µM | 47.3 | 11.9 | 4.01 | 21.3 | 1.8 | 1.34 | 1.63 | 1.53 |
| CS(=O)(=O)CSCSSCS(C)(=O)=O | > 75.4 µM | > 92.1 µM | > 100 | 42.5 | > 100 | 75.6 |  |  |  |  |
| CC(=O)NC(CCCCNC(=O)NCCCl)C(=O)NCc1ccccc1 (stereo not drawn) | > 100 µM | > 100 µM | > 100 | > 100 | > 100 | > 100 |  |  |  |  |
| CN1CC[C@]2(C)c3ccc(O)cc3CC3CCCC1C32C (stereo partly drawn) | > 100 µM | > 100 µM | > 100 | > 100 | > 100 | > 100 |  |  |  |  |
| CCOC(=O)c1s/c(=N\Nc2nc3ccccc3cc2C2OCCO2)n(Cc2ccccc2)c1C | > 100 µM | > 100 µM | > 100 | > 100 | > 100 | > 100 |  |  |  |  |
